Literature values as cited in patent US11066478B2, “Intravesical therapy for bladder cancer” (PHOTOCURE ASA, priority 2015, dated 2021).

Experiments:
bladder cancer = settings: patients who underwent cystectomy for bladder cancer, HAL-guided TUR prior to cystectomy
NMIBC = settings: patients with NMIBC

CCCCCCOC(=O)CCC(=O)CN [HAL, n-hexyl 5-amino-4-oxo-pentanoate]
3-year overall survival (OS) (bladder cancer; comparison 56.6%): 65.0% | 3-year recurrence-free survival (RFS) (bladder cancer; white light TUR alone 58.2%): 69.8% | rate of residual tumor after TUR (NMIBC; HAL-guided TUR): reduced the rate of residual tumor | recurrence free survival (RFS) rates (NMIBC; HAL-guided TUR compared to white light TUR alone): superior recurrence free survival (RFS) rates | detection of papillary tumors and flat carcinoma-in-situ (CIS) lesions (NMIBC; HAL-guided cystoscopy and TUR versus white light alone): increased detection
